Results published in patent US9790378B2, “Vapor source using solutions of precursors in terpenes” (President and Fellows of Harvard College, priority 2010, dated 2017).

Description: [drawing 8] was dissolved in alloocimene.
Examples 1 and 2 were repeated except that dodecane was used as a solvent in place of alloocimene or farnesenes.
[drawing 9] is dissolved in mixed isomers of farnesene.
[drawing 10] is dissolved in mixed isomers of farnesenes.
[drawing 11] is dissolved in mixed isomers of farnesenes.
[drawing 12] is dissolved in alloocimene.
[drawing 13] is dissolved in mixed isomers of farnesene.

Solubility (in words), high:
tris(N,N′-diisopropylformamidinato)lanthanum(III), bis(N,N′-diisopropylpentamidinato)manganese(II), bis(N,N′-diisopropylacetamidinato)cobalt(II), copper(I) (N,N′-di-sec-butylacetamidinate), tris(N,N′-diisopropylacetamidinato)yttrium(III)
